US11358969B2, “Indole AHR inhibitors and uses thereof” (Ikena Oncology, Inc., priority 2017, dated 2022)
pIC50: −log10 of the molar value. Several values for one entry are separate records, joined by “and”; a condition that tells them apart may be missing. Identical values can stand only once.

Tests used:
[1] = In Vitro Mouse liver S9 Metabolic Stability Assay (Example 1D); assay type: in vitro ADME; settings: CD-1 mouse liver S9, 1 μM compound, 1 mg/mL S9 protein, 37° C., NADPH regenerating system, UDPGA, PAPS
Procedure: CD-1 mouse liver S9 were purchased from Corning or XenoTech LLC or BioreclamationIVT, LLC or WuXi prepared. The cells were stored at −80° C. in a freezer before use. β-Nicotinamide adenine dinucleotide phosphate (NADP), Glucose 6-phosphate (G6P), Glucose 6-phosphate dehydrogenase from yeast (G6PDH), Uridine 5′-diphophoglucuronic acid trisodium salt (UDPGA) and Adenosine 3′-phosphate 5′-phosphosulfate lithium salt hydrate (PAPS) were available commercially from Sigma.
Compounds were diluted in DMSO to make 10 mM stock solution. 5 μL of this stock solution (10 mM, DMSO) was diluted with 45 μL DMSO and 450 μL 50% Methanol/Water to make intermediate stock solution (100 μM, 45% MeOH, 10% DMSO). 50 μL of intermediate stock solution was diluted with 450 μL 100 mM phosphate buffer to make a final stock solution (10 μM, 4.5% MeOH, 1% DMSO). 10 uL of final stock solution was added to 90 uL liver S9 system (final concentration of 1 μM, 0.45% MeOH, 0.1% DMSO).
Test compounds were incubated at 37° C. with liver S9 (pooled from multiple donors) at 1 μM in the presence of a NADPH regenerating system, UDPGA, and PAPS at 1 mg/mL S9 protein. Time samples (0 and 60 minutes) were removed and immediately mixed with cold acetonitrile containing internal standard (IS). Samples were analyzed by LC/MS/MS and disappearance of test compounds were assessed based on peak area ratios of analyte /IS (no standard curve). All samples were injected and analyzed using LC-MS/MS. The analyte/internal standard peak area ratios were converted to percentage remaining (% Remaining) with the following equation: % Remaining at 60 min=(Peak area ratio of analyte to IS at 60 min/Peak area ratio of analyte to IS at t=0)×100%. Table 5. Mouse Stability Data According to Example 1D.

[2] = target: T1, AHR (UniProt P35869); assay: DRE-Luciferase Reporter Assay (Alternate Method) (Example 1B); assay type: cell-based, murine or human; settings: cell line and AHR activating ligand not specified
T1 construct: IC50
T1 sequence (P35869 1-848): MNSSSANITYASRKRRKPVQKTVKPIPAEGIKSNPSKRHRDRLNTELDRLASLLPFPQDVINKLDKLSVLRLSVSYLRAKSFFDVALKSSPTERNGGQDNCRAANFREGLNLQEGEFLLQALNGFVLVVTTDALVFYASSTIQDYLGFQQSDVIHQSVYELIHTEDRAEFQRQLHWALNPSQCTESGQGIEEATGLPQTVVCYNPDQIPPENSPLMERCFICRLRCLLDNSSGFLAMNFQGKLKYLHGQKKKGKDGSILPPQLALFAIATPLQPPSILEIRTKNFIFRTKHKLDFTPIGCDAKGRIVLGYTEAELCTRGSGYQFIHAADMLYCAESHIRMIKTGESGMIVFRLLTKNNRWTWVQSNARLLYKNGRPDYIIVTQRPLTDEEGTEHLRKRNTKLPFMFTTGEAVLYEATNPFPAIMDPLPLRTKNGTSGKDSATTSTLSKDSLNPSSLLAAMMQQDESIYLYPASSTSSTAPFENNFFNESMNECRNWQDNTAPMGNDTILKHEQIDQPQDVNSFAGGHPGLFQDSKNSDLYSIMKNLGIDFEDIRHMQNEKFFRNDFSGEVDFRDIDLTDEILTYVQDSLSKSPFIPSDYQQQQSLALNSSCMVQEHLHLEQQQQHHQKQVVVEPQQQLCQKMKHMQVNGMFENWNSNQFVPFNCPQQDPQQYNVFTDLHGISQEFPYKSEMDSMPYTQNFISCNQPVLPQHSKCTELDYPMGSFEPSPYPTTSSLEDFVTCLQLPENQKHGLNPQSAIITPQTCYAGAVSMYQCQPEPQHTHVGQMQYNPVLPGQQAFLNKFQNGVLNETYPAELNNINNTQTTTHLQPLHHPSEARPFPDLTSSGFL

Mouse S9 Stability: % Remaining After 60 Minutes [1] | pIC50 [2] | Compound
0% | > 6.30 | Cc1[nH]c2c(F)cccc2c1CCNc1cc(-c2cncc(F)c2)nc2ccnn12 [I-214, N-[2-(7-Fluoro-2-methyl-1H-indol-3-yl)ethyl]-5-(5-fluoro-3-pyridyl)pyrazolo[1,5-a]pyrimidin-7-amine]
0% | 6.00 to 6.30 | Cc1cnn2c(NCCc3c[nH]c4cccnc34)cc(-c3cncc(F)c3)nc12 [I-209, 5-(5-Fluoro-3-pyridyl)-3-methyl-N-[2-(1H-pyrrolo[3,2-b]pyridin-3-yl)ethyl]pyrazolo[1,5-a]pyrimidin-7-amine]
0% | > 6.30 | Cc1[nH]c2c(F)cccc2c1CCNc1nc(-c2cncc(F)c2)nc2ccnn12 [I-200, N-[2-(7-fluoro-2-methyl-1H-indol-3-yl)ethyl]-2-(5-fluoro-3-pyridyl)pyrazolo[1,5-a][1,3,5]triazin-4-amine]
0% | > 6.30 | Cc1[nH]c2c(F)cccc2c1CCNc1cc(-c2cncc(F)c2)nc2c(C)cnn12 [I-224, N-[2-(7-fluoro-2-methyl-1H-indol-3-yl)ethyl]-5-(5-fluoro-3-pyridyl)-3-methyl-pyrazolo[1,5-a]pyrimidin-7-amine]
28% | < 5.82 | CC(C)c1ccc2c(N[C@@H]3CCc4[nH]c5ccccc5c4C3)nc(-c3cncc(F)c3)nn12 [I-156]
0% | > 6.30 | Cc1[nH]c2c(F)cccc2c1CCNc1nc(-c2cncc(F)c2)nc2c(C)cnn12 [I-202, N-[2-(7-Fluoro-2-methyl-1H-indol-3-yl)ethyl]-2-(5-fluoro-3-pyridyl)-8-methyl-pyrazolo[1,5-a][1,3,5]triazin-4-amine]
3% | > 6.30 | Fc1cncc(-c2nc(N[C@@H]3CCc4[nH]c5ccccc5c4C3)n3nccc3n2)c1 [I-165, (3R)—N-[2-(5-Fluoro-3-pyridyl)pyrazolo[1,5-a][1,3,5]triazin-4-yl]-2,3,4,9-tetrahydro-1H-carbazol-3-amine]
8% | > 6.30 | Fc1cncc(-c2nc(NCCc3c[nH]c4ccccc34)cc(N3CCCC3)n2)c1 [I-105, 2-(5-Fluoro-3-pyridyl)-N-[2-(1H-indol-3-yl)ethyl]-6-pyrrolidin-1-yl-pyrimidin-4-amine]
0% | > 6.30 | Cc1cnn2c(NCCc3cc[nH]c3)cc(-c3cncc(F)c3)nc12 [I-196, 5-(5-Fluoro-3-pyridyl)-3-methyl-N-[2-(1H-pyrrol-3-yl)ethyl]pyrazolo[1,5-a]pyrimidin-7-amine]
1% | > 6.30 | CC(C)c1cnc2c(NCCc3c[nH]c4ccccc34)nc(-c3cncc(F)c3)cn12 [I-106, 6-(5-Fluoro-3-pyridyl)-N-[2-(1H-indol-3-yl)ethyl]-3-isopropyl-imidazo[1,2-a]pyrazin-8-amine]
0% | < 5.82 | Fc1cncc(-c2cc(NCCc3c[nH]c4cccnc34)n3nccc3n2)c1 [I-208, 5-(5-Fluoro-3-pyridyl)-N-[2-(1H-pyrrolo[3,2-b]pyridin-3-yl)ethyl]pyrazolo[1,5-a]pyrimidin-7-amine]
10% | > 6.30 | CC(C)c1cnn2c(NC3Cc4ccc(O)cc4C3)cc(-c3cncc(F)c3)nc12 (stereo not drawn) [I-109, 2-[[5-(5-Fluoro-3-pyridyl)-3-isopropyl-pyrazolo[1,5-a]pyrimidin-7-yl]amino]indan-5-ol]
4% | > 6.30 | CC(C)c1cnn2c(NCCc3cc[nH]c3)nc(-c3cncc(F)c3)nc12 [I-166, 2-(5-Fluoro-3-pyridyl)-8-isopropyl-N-[2-(1H-pyrrol-3-yl)ethyl]pyrazolo[1,5-a][1,3,5]triazin-4-amine]

Continued, molecule first:

Compound | Mouse S9 Stability: % Remaining After 60 Minutes [1] | pIC50 [2]
CON(C)C(=O)c1cnn2c(NCCc3c[nH]c4ccccc34)cc(-c3cncc(F)c3)nc12 [I-92, 5-(5-Fluoro-3-pyridyl)-7-[2-(1H-indol-3-yl)ethylamino]-N-methoxy-N-methyl-pyrazolo[1,5-a]pyrimidine-3-carboxamide] | 0% | > 6.30
CN1CCN(C(=O)c2cnn3c(NCCc4c[nH]c5ccccc45)cc(-c4cncc(F)c4)nc23)CC1 [I-68, [5-(5-Fluoro-3-pyridyl)-7-[2-(1H-indol-3-yl)ethylamino]pyrazolo[1,5-a]pyrimidin-3-yl]-(4-methylpiperazin-1-yl)methanone] | 4% | 6.00 to 6.30
CC(C)c1cnc2c(N[C@@H]3CCc4[nH]c5ccccc5c4C3)nc(-c3cncc(F)c3)cn12 [I-30, (3R)—N-[6-(5-Fluoro-3-pyridyl)-3-isopropyl-imidazo[1,2-a]pyrazin-8-yl]-2,3,4,9-tetrahydro-1H-carbazol-3-amine] | 11% | > 6.30
Fc1cncc(-c2nc(N[C@@H]3CCc4[nH]c5ccccc5c4C3)cc(N3CCCC3)n2)c1 [I-36, (3R)—N-[2-(5-Fluoro-3-pyridyl)-6-pyrrolidin-1-yl-pyrimidin-4-yl]-2,3,4,9-tetrahydro-1H-carbazol-3-amine] | 29% | < 5.82
CC(C)Oc1cc(-c2cncc(F)c2)nc(NCCc2c[nH]c3ccccc23)n1 [I-72, 4-(5-Fluoro-3-pyridyl)-N-[2-(1H-indol-3-yl)ethyl]-6-isopropoxy-pyrimidin-2-amine] | 3% | > 6.30
CC(C)(C)c1cnn2c(NCCc3c[nH]c4ccccc34)cc(-c3cncc(F)c3)nc12 [I-90, 3-tert-Butyl-5-(5-fluoro-3-pyridyl)-N-[2-(1H-indol-3-yl)ethyl]pyrazolo[1,5-a]pyrimidin-7-amine] | 11% | > 6.30
CN1CCN(c2cc(NCCc3c[nH]c4ccccc34)nc(-c3cncc(F)c3)n2)CC1 [I-67, 2-(5-Fluoro-3-pyridyl)-N-[2-(1H-indol-3-yl)ethyl]-6-(4-methylpiperazin-1-yl)pyrimidin-4-amine] | 5% and 1% | > 6.30
Fc1cncc(-c2cc(NCCc3c[nH]c4ccccc34)n3ncc(C(F)(F)F)c3n2)c1 [I-47, 5-(5-Fluoro-3-pyridyl)-N-[2-(1H-indol-3-yl)ethyl]-3-(trifluoromethyl)pyrazolo[1,5-a]pyrimidin-7-amine] | 50% | > 6.30
CC(C)c1cnn2c(NCCc3c[nH]c4c(F)cc(F)cc34)nc(-c3cncc(F)c3)nc12 [I-96, N-[2-(5,7-Difluoro-1H-indol-3-yl)ethyl]-2-(5-fluoro-3-pyridyl)-8-isopropyl-pyrazolo[1,5-a][1,3,5]triazin-4-amine] | 36% | > 6.30
CC(C)Oc1cc(NCCc2c[nH]c3ccccc23)nc(-c2cncc(F)c2)n1 [I-21, 2-(5-Fluoro-3-pyridyl)-N-[2-(1H-indol-3-yl)ethyl]-6-isopropoxy-pyrimidin-4-amine] | 26% | > 6.30
CC(C)c1cnn2c(NCCc3c[nH]c4ccccc34)cc(-c3ccccc3)nc12 [I-45, N-[2-(1H-indol-3-yl)ethyl]-3-isopropyl-5-phenyl-pyrazolo[1,5-a]pyrimidin-7-amine] | 19% | > 6.30
